As a reminder, the inhibition is the percentage by which the read-out fell short of the control. A low value points to a weak effect. In general, MIC refers to the least concentration at which growth counts as inhibited. As a reminder, the pKb is −log10 of the Kb, conventionally taken in molar units.

We go through twelve molecules from ChEMBL document CHEMBL1152307, “Antimycobacterial and H1-antihistaminic activity of 2-substituted piperidine derivatives” (Bioorg Med Chem, 2008).

Molecules are shown by their SMILES. In brackets after ≈: the same amount, converted by molar mass.

The test system of series [1] is Mycobacterium tuberculosis. In words: Antimycobacterial activity against Mycobacterium tuberculosis H37Rv at 6.25 ug/ml after 4 days by microplate alamar blue assay. The format is functional. Particulars: 96 h. In general terms: Alamar Blue is a resazurin reagent that responds to reducing activity.
In series [2] the test system is Mycobacterium tuberculosis. In words: Antimycobacterial activity against Mycobacterium tuberculosis H37Rv after 4 days by microplate alamar blue assay. The format is functional. The settings on record: 96 h.
The nature of series [3]: Cytotoxicity against HEK293 cells after 72 hrs by MTT assay. The format is cell-based. The settings on record: human, read-out: LC50.
Series [4] concerns the target Histamine H1 receptor (Cavia porcellus) (UniProt P31389). Briefly: Antagonist activity at guinea pig ileum histamine H1 receptor at 0.3 x 10'4 M. The format is functional, tissue-based.

Sequence of Histamine H1 receptor (Cavia porcellus) (P31389 whole entry): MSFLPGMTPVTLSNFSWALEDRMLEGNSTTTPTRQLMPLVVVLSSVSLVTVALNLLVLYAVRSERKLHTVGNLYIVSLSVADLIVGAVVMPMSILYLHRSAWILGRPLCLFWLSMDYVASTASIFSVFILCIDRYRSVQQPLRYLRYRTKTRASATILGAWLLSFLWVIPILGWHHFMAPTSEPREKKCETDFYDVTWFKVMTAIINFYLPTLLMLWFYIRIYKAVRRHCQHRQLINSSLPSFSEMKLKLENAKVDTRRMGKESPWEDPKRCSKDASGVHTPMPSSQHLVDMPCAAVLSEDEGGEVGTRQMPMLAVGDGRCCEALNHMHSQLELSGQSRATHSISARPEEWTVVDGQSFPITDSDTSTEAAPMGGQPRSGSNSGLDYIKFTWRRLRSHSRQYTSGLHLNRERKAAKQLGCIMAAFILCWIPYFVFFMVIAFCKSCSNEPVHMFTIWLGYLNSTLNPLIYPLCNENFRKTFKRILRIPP

In the case of `CN1CC[C@H](N(Cc2ccccc2)c2ccccc2)CC1(C)C`, in series [1], testing at 6.25 µg/mL gave an inhibition of 31%. This molecule registered an MIC in series [2] of over 6.25 µg/mL. Also, the CC50 at 72 h in series [3] came out at 69.5 µg/mL (≈ 225 µM).

With `COc1ccc(N(Cc2ccccc2)[C@H]2CCN(C)C(C)(C)C2)cc1`, in series [1], the inhibition at 6.25 µg/mL is 26%. This molecule yielded a minimal inhibitory concentration (MIC) in series [2] of over 6.25 µg/mL. Further, in series [3], the CC50 at 72 h came to 82 µg/mL (≈ 242 µM).

On to `CC1(C)C[C@@H](N(Cc2ccccc2)c2ccccc2)CCN1c1ccccc1`, for which, in series [1], the inhibition at 6.25 µg/mL is 91%. In addition, the MIC in series [2] was found to be 6.25 µg/mL (≈ 16.9 µM). In series [3], the CC50 at 72 h was determined as 108 µg/mL (≈ 291 µM). For the same molecule, the pKb in series [4] came to 5.

In the case of `CN1CC[C@H](OC(c2ccccc2)c2ccccc2)CC1(C)C`, in series [4], the pKb is 8.19.

In the case of `c1ccc(CN(c2ccccc2)[C@H]2CCN(c3ccccc3)[C@@H](c3ccccc3)C2)cc1` (relative stereo), the inhibition at 6.25 µg/mL in series [1] was found to be 37%. In addition, the MIC in series [2] was over 6.25 µg/mL. Further, the CC50 at 72 h in series [3] is over 28 µg/mL.

The molecule `CC(C)[C@H]1C[C@@H](N(Cc2ccccc2)c2ccccc2)CCN1C` (relative stereo) had an inhibition at 6.25 µg/mL in series [1] of 66%. In series [2], this molecule displayed an MIC of over 6.25 µg/mL. In addition, the CC50 at 72 h in series [3] is 35.9 µg/mL (≈ 111 µM).

Take `CC(C)[C@H]1C[C@@H](N(Cc2ccccc2)c2ccccc2)CCN1c1ccccc1` (relative stereo): the inhibition at 6.25 µg/mL in series [1] came to 7%. This molecule also had an MIC in series [2] of over 6.25 µg/mL. Also, in series [3], the CC50 at 72 h was 127 µg/mL (≈ 330 µM).

`c1ccc(CN(c2ccccc2)[C@H]2CCN(c3ccccc3)[C@H](c3ccccc3)C2)cc1` (relative stereo): the inhibition at 6.25 µg/mL in series [1] was determined as 22%. This molecule also had an MIC in series [2] of over 6.25 µg/mL. Besides, the CC50 at 72 h in series [3] is over 28 µg/mL.

The molecule `CC(C)[C@@H]1C[C@@H](N(Cc2ccccc2)c2ccccc2)CCN1c1ccccc1` (relative stereo) came in with an inhibition at 6.25 µg/mL in series [1] of 52%. In addition, the MIC in series [2] is over 6.25 µg/mL. The CC50 at 72 h in series [3] is over 28 µg/mL.

In turn, `CN1CCC(N(Cc2ccccc2)c2ccccc2)CC1` [BAMIPINE] showed an inhibition at 6.25 µg/mL in series [1] of 29%. For the same molecule, in series [2], the minimum inhibitory concentration (MIC) was over 6.25 µg/mL. Besides, the CC50 at 72 h in series [3] is 64.1 µg/mL (≈ 229 µM).

In turn, `NNC(=O)c1ccncc1` [ISONIAZID] displayed an MIC in series [2] of 0.025 µg/mL (≈ 0.182 µM). Moreover, the CC50 at 72 h in series [3] was over 200 µg/mL.

The molecule `CO[C@H]1/C=C/O[C@@]2(C)Oc3c(C)c(O)c4c(O)c(c(/C=N/N5CCN(C)CC5)c(O)c4c3C2=O)NC(=O)/C(C)=C\C=C\[C@H](C)[C@H](O)[C@@H](C)[C@@H](O)[C@@H](C)[C@H](OC(C)=O)[C@@H]1C` [RIFAMPIN] registered a minimal inhibitory concentration (MIC) in series [2] of 0.06 µg/mL (≈ 0.0729 µM). Moreover, the CC50 at 72 h in series [3] was over 200 µg/mL.
